Here are results for one molecule from US12673964B2, “Crystal of thyroid hormone B receptor agonist, process for preparing the same and use thereof” (GANNEX PHARMA CO., LTD., priority 2020, dated 2026).

Data set [1] is described as follows: Particle size test of crystal form I (micrometer particle size analyzer MS3000, dry method). Type of data set: physicochemical. Conditions: particle size analysis. From the text:
The particle size conditions of the crystal form I of the compound of formula I used in the present disclosure are: name/model of detection instrument: micrometer particle size analyzer/MS3000; test method: dry method; sample injection rate: 50%; air pressure: 2.5 bar; slit width: 2.0 mm; refractive index: 1.52; absorption rate: 0.1; shade degree: 0.5% to 6%; background measurement time: 10 s; and sample measurement time: 10 s. The crystal obtained in Example 1 was subject to a particle size test in accordance with the above conditions.

Data set [2] can be described thus: Hygroscopicity test of crystal form I (dynamic moisture adsorption instrument, DVS). Conditions: for Weight gain percentage at 80% relative humidity: DVS, about 28 mg of crystal. Type of data set: physicochemical. As for the experimental part:
About 28 mg of the crystal obtained in Example 1 was taken. The hygroscopicity of the crystal was determined with dynamic moisture adsorption instrument in accordance with the above conditions. The weight gain of crystal form I was within 0.2% at 80% relative humidity.

With `Cc1cc(OC[P@@]2(=O)OCC[C@@H](c3cccc(Cl)c3)O2)cc(C)c1Cc1ccc(O)c(C(C)C)c1` [Example 1], the “Specific Area” value in data set [1] is listed as 807.1 m^2/kg. Also, the particle size Dv10 in data set [1] (Dv 10) worked out at 6.41 µm. This molecule also came in with a particle size Dv50 in data set [1] (Dv 50) of 20.3 µm. Further, the particle size Dv90 in data set [1] (Dv 90) was 48.2 µm. In addition, the particle size Dv95 in data set [1] (Dv 95) is 59.1 µm. For the same molecule, the “Weight gain percentage at 80% relative humidity” value is reported as 0.1213% in data set [2] and no more than 0.2% in data set [2] (listed as crystal form I). Besides, the Hygroscopicity class result in data set [2] (guidance principle of drug hygroscopicity, Appendix XIXJ of the Chinese Pharmacopoeia 2015) is given as “no or nearly no hygroscopicity”.
